Legend:
[1] = test system: HCV Jc1-infected Huh7.5.1^dif cells; assay: 186-gene HCC risk signature (nCounter, GSEA, nearest template prediction) in persistently HCV Jc1-infected Huh7.5.1^dif cells; assay type: cell-based, human; settings: for Reversal of HCC high-risk genes as shown by GSEA (FIG. 2A): DAA 1 nM DCV+1 μM SOF, interferon alpha-2a 10 IU/ml, erlotinib 0.1 μM, pioglitazone 1 μM, metformin 3 μM, mAb 1, 10 and 100 μg/ml
Experimental: Huh7.5.1 cells have already been described (Zhong et al., Proc Natl Acad Sci USA, 2005, 102(26): 9294-9299). For proliferation arrest and differentiation (Huh7.5.1^dif cells), 2.5.10^4 to 3.10^4 Huh7.5.1 cells were cultured in Dulbecco's Modified Eagle Medium (DMEM) containing 1% dimethylsulfoxide (DMSO).
Cell culture-derived HCVcc Jc1 (genotype 2a/2a) (Pietschmann et al., Proc Natl Acad Sci USA, 2006, 103(19): 7408-7413) were generated in Huh7.5.1 cells as previously described (Wakita et al., Nat Med., 2005, 11(7): 791-796). HCVcc infectivity was determined by calculating the 50% tissue culture infectious doses (TCID50) in infection experiments as previously described (Lindenbach et al., Science, 2005, 309(5734): 623-626). HCV infection was assessed by qRT-PCR of intracellular HCV RNA (Xiao et al., Gut, 2015, 64(3): 483-494) as well as by immunostaining using an HCV E2-specific AP33 antibody as previously described (Krieger et al., Hepatology. 2010, 51(4): 1144-1157).
Liver cells were lysed in TRI-reagent (Molecular Research Center), and RNA was purified using Direct-zol RNA MiniPrep (Zymo Research) according to the manufacturer's instructions. RNA quantity and quality were assessed using NanoDrop (ThermoScientific) and Bioanalyzer 2100 ([…]). Gene expression profiling was performed using 250-500 ng total RNA by using nCounter Digital Analyzer system (NanoString).
Cells incubated with 1% DMSO served as negative control. Three (3) days after treatment, the cells were lysed, total RNA was purified as described above, and analyzed for gene expression and intracellular viral load as described above.
Prediction of clinical outcome based on the 186-gene signature was performed as previously reported by using the nearest template prediction algorithm, which was implemented in GenePattern (King et al., Gut, 2014, 20. pii: gutjn1-2014-307862. doi: 10.1136/gutjn1-2014-307862; Hoshida et al., PLoS ONE, 2010, 5(11), e15543). A prediction of HCC high-risk or low-risk gene signature was determined using p<0.05 and FDR<0.25. Induction/suppression of each gene set over time according to HCV Jc1 infection and uninfected control was assessed through GSEA and single sample GSEA (ssGSEA) modules implemented in GenePattern as previously described (Subramanian et al., Proc Natl Acad Sci USA, 2005, 102(43): 15545-15550; Barbie et al., Nature, 2009, 462(7269): 108-112). […] Using differentially expressed genes, network analysis was performed using canonical pathways from Ingenuity Knowledge Base repository (Ingenuity Systems Inc.).

[2] = test system: rodent models of cirrhosis-driven HCC; settings: Fuchs et al., Hepatology, 2014; cited from earlier work
[3] = 186-gene signature, treatment from day 7 post-infection, nCounter assay

SMILES	Reversal of HCC high-risk genes as shown by GSEA (FIG. 2A) [1]	NES, HCC high-risk genes (GSEA) [1, 3]	NES, HCC low-risk genes (GSEA) [1, 3]	186-gene HCC risk signature [2]	Liver fibrosis and HCC nodules [2]
CN(C)C(=N)N=C(N)N [metformin]	had no effect				
C#Cc1cccc(Nc2ncnc3cc(OCCOC)c(OCCOC)cc23)c1 [erlotinib]	partially reverses	−1.28	1.26	reversed	reduced liver fibrosis and HCC nodules

From patent US10927170B2, “Anti-claudin 1 monoclonal antibodies for the prevention and treatment of hepatocellular carcinoma” (INSTITUT HOSPITALIER UNIVERSITAIRE DE STRASBOURG, priority 2015, dated 2021)
